Tests used:
[1] = tested on: spindle assembly checkpoint; test: SAC-Formation - Paclitaxel-Induced Assay; assay type: cell-based; settings: Homo sapiens; HeLa cells, paclitaxel 0.05 μM, 24 h, phosphorylated histone H3 on serine 10
Summary of the method: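 HeLa cells were plated overnight, then given paclitaxel (0.05 μM final) plus compound (0.005-20 μM, 0.5% DMSO) for 24 h at 37° C. Fixed cells were stained for phospho-histone H3 Ser10 and with Hoechst, then imaged to give mitotic index. A fall in mitotic cells marks SAC breakthrough, and values were fit with a four-parameter Hill equation.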

[2] = target: CDK2/CycE (Homo sapiens (Human), UniProt P24941); test: CDK2/CycE kinase assay (TR-FRET); assay type: biochemical; settings: 10 μM ATP; read-out: CDK2 avg (IC50 [mol/l])
Summary of the method: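 GST-tagged human CDK2 and GST-CycE from Sf9 cells (~130 ng/ml) were preincubated with compound for 15 min at 22 °C. Reaction with 10 μM ATP and 0.75 μM biotinylated peptide (final) ran 25 min at 22 °C, pH 8.0. Phospho-peptide was read by TR-FRET (665/620 nm ratio, anti-pRB antibody, Eu donor) and normalised to no-enzyme and no-inhibitor controls.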

| IC50 [1] [µM] | IC50 [2] [µM] | Compound |
| --- | --- | --- |
| 0.36 | > 20 | Cc1nsc(Nc2cncc(-c3ncco3)n2)c1C(=O)Nc1ccc(Cl)c(F)c1 [Example 63, N-(4-Chloro-3-fluorophenyl)-3-methyl-5-{[6-(1,3-oxazol-2-yl)pyrazin-2-yl]amino}-1,2-thiazole-4-carboxamide] |
| 0.016 | > 20 | Cc1nsc(Nc2cnc(C(F)(F)F)cn2)c1C(=O)Nc1ccc(F)c(F)c1 [Example 81, N-(3,4-Difluorophenyl)-3-methyl-5-{[5-(trifluoromethyl)pyrazin-2-yl]amino}-1,2-thiazole-4-carboxamide] |
| 0.031 | > 20 | Cc1nsc(Nc2cnc(Cl)cn2)c1C(=O)Nc1ccc(F)c(F)c1 [Example 74, 5-[(5-Chloropyrazin-2-yl)amino]-N-(3,4-difluorophenyl)-3-methyl-1,2-thiazole-4-carboxamide] |
| 5.6 | > 20 | CCOC(=O)c1cnc(Nc2snc(C)c2C(=O)Nc2ccccc2CC)s1 [Example 92, Ethyl 2-({4-[(2-ethylphenyl)-carbamoyl]-3-methyl-1,2-thiazol-5-yl}amino)-1,3-thiazole-5-carboxylate] |
| 0.03 | > 20 | Cc1nsc(Nc2cnc3cc(C(F)(F)F)ccc3n2)c1C(=O)Nc1ccc(Cl)c(F)c1 [Example 68, N-(4-Chloro-3-fluorophenyl)-3-methyl-5-{[6-(trifluoromethyl)quinoxalin-2-yl]amino}-1,2-thiazole-4-carboxamide] |
| 0.01 | > 20 | Cc1cncc(Nc2snc(C)c2C(=O)Nc2ccc(F)c(F)c2)n1 [Example 69] |
| 4.7 | > 20 | CNC(=O)c1ccc(Nc2snc(C)c2C(=O)Nc2ccc(F)c(F)c2)nn1 [Example 80, 6-({4-[(3,4-Difluorophenyl)carbamoyl]-3-methyl-1,2-thiazol-5-yl}amino)-N-methylpyridazine-3-carboxamide] |
| 0.09 | > 20 | COC(=O)c1cncc(Nc2snc(C)c2C(=O)Nc2ccc(F)c(F)c2)n1 [Example 66, Methyl 6-({4-[(3,4-difluorophenyl)carbamoyl]-3-methyl-1,2-thiazol-5-yl}amino)-pyrazine-2-carboxylate] |
| 0.29 | > 20 | Cc1nsc(Nc2nc3c(C(F)(F)F)ccnc3s2)c1C(=O)Nc1ccc(F)c(F)c1 [Example 58, N-(3,4-Difluorophenyl)-3-methyl-5-{[7-(trifluoromethyl)[1,3]thiazolo[5,4-b]pyridin-2-yl]amino}-1,2-thiazole-4-carboxamide] |
| 0.033 | 6.5 | Cc1nsc(Nc2ccc(C#N)cn2)c1C(=O)Nc1ccc(Cl)c(Cl)c1 [Example 62, 5-[(5-Cyanopyridin-2-yl)amino]-N-(3,4-dichlorophenyl)-3-methyl-1,2-thiazole-4-carboxamide] |
| 5.6 | > 20 | COc1ccc(NC(=O)c2c(C)nsc2Nc2cnc3ccccc3n2)cn1 [Example 94, N-(6-Methoxypyridin-3-yl)-3-methyl-5-(quinoxalin-2-ylamino)-1,2-thiazole-4-carboxamide] |
| 0.0093 | > 20 | Cc1nsc(Nc2ccc(C(F)(F)F)nn2)c1C(=O)Nc1ccc(F)c(F)c1 [Example 83, N-(3,4-Difluorophenyl)-3-methyl-5-{[6-(trifluoromethyl)pyridazin-3-yl]amino}-1,2-thiazole-4-carboxamide] |
| 1.7 | > 20 | CCc1ccccc1NC(=O)c1c(C)nsc1Nc1cc(C#N)ccn1 [Example 4, 5-[(4-Cyanopyridin-2-yl)amino]-N-(2-ethylphenyl)-3-methyl-1,2-thiazole-4-carboxamide] |
| 0.013 | > 20 | CCc1cncc(Nc2snc(C)c2C(=O)Nc2ccc(F)c(F)c2)n1 [Example 76, N-(3,4-Difluorophenyl)-5-[(6-ethylpyrazin-2-yl)amino]-3-methyl-1,2-thiazole-4-carboxamide] |
| 2.3 | > 20 | COc1ccc(NC(=O)c2c(C)nsc2Nc2nc3ccc(C)cc3s2)cn1 [Example 90, N-(6-Methoxypyridin-3-yl)-3-methyl-5-[(6-methyl-1,3-benzothiazol-2-yl)amino]-1,2-thiazole-4-carboxamide] |
| 0.065 | > 20 | COc1ccc(NC(=O)c2c(C)nsc2Nc2cncc(C(F)(F)F)n2)cn1 [Example 84, N-(6-methoxypyridin-3-yl)-3-methyl-5-{[6-(trifluoromethyl)pyrazin-2-yl]amino}-1,2-thiazole-4-carboxamide] |
| 0.058 | > 20 | CNC(=O)c1cnc(Nc2snc(C)c2C(=O)Nc2ccc(F)c(F)c2)cn1 [Example 75, 5-({4-[(3,4-Difluorophenyl)carbamoyl]-3-methyl-1,2-thiazol-5-yl}amino)-N-methylpyrazine-2-carboxamide] |

| IC50 [1] [µM] | IC50 [2] [µM] | Compound |
| --- | --- | --- |
| 20 | > 20 | COc1cncc(Nc2snc(C)c2C(=O)Nc2ccc(F)c(F)c2)n1 [Example 72, N-(3,4-Difluorophenyl)-5-[(6-methoxypyrazin-2-yl)amino]-3-methyl-1,2-thiazole-4-carboxamide] |
| 1.4 | > 20 | CCc1ccccc1NC(=O)c1c(C)nsc1Nc1nc(C(=O)OC)co1 [Example 91, Methyl 2-({4-[(2-ethylphenyl)carbamoyl]-3-methyl-1,2-thiazol-5-yl}amino)-1,3-oxazole-4-carboxylate] |
| 11 | > 20 | CCc1ccccc1NC(=O)c1c(C)nsc1Nc1ccncn1 [Example 2, N-(2-Ethylphenyl)-3-methyl-5-(pyrimidin-4-ylamino)-1,2-thiazole-4-carboxamide] |
| 0.49 | > 20 | CCc1ccccc1NC(=O)c1c(C)nsc1Nc1cnc2cc(Cl)ccc2n1 [Example 86, 5-[(6-Chloroquinoxalin-2-yl)amino]-N-(2-ethylphenyl)-3-methyl-1,2-thiazole-4-carboxamide] |
| 0.51 | > 20 | CCOC(=O)c1sc(Nc2snc(C)c2C(=O)Nc2ccc(Cl)c(F)c2)nc1C [Example 95, Ethyl 2-({4-[(4-chloro-3-fluoro-phenyl)carbamoyl]-3-methyl-1,2-thiazol-5-yl}amino)-4-methyl-1,3-thiazole-5-carboxylate] |
| 0.084 | 8.6 | Cc1nsc(Nc2cncc(Cl)n2)c1C(=O)Nc1ccc(F)c(F)c1 [Example 71, 5-[(6-Chloropyrazin-2-yl)amino]-N-(3,4-difluorophenyl)-3-methyl-1,2-thiazole-4-carboxamide] |
| 8 | > 20 | COc1ccc(NC(=O)c2c(C)nsc2Nc2ncc(C(=O)N3CCOCC3)s2)cc1F [Example 93, N-(3-Fluoro-4-methoxyphenyl)-3-methyl-5-{[5-(morpholin-4-ylcarbonyl)-1,3-thiazol-2-yl]amino}-1,2-thiazole-4-carboxamide] |
| 0.15 | > 20 | CCc1cnc(Nc2snc(C)c2C(=O)Nc2ccc(F)c(F)c2)cn1 [Example 79, N-(3,4-Difluorophenyl)-5-[(5-ethylpyrazin-2-yl)amino]-3-methyl-1,2-thiazole-4-carboxamide] |
| 0.94 | > 20 | CNC(=O)c1cncc(Nc2snc(C)c2C(=O)Nc2ccc(F)c(F)c2)n1 [Example 70, 6-({4-[(3,4-Difluorophenyl)carbamoyl]-3-methyl-1,2-thiazol-5-yl}amino)-N-methylpyrazine-2-carboxamide] |
| 0.91 | > 20 | CCNc1cncc(Nc2snc(C)c2C(=O)Nc2ccc(F)c(F)c2)n1 [Example 78, N-(3,4-Difluorophenyl)-5-{[6-(ethylamino)pyrazin-2-yl]amino}-3-methyl-1,2-thiazole-4-carboxamide] |
| > 20 | > 20 | CCc1ccccc1NC(=O)c1c(C)nsc1Nc1nccc(-c2ccccc2)n1 [Example 5, N-(2-Ethylphenyl)-3-methyl-5-[(4-phenylpyrimidin-2-yl)amino]-1,2-thiazole-4-carboxamide] |
| 0.0083 | > 20 | Cc1nsc(Nc2cnc(Br)cn2)c1C(=O)Nc1ccc(F)c(F)c1 [Example 77, 5-[(5-Bromopyrazin-2-yl)amino]-N-(3,4-difluorophenyl)-3-methyl-1,2-thiazole-4-carboxamide] |
| 0.022 |  | Cc1nsc(Nc2cncc(-n3cccn3)n2)c1C(=O)Nc1ccc(Cl)c(F)c1 [Example 67, N-(4-Chloro-3-fluorophenyl)-3-methyl-5-{[6-(1H-pyrazol-1-yl)pyrazin-2-yl]amino}-1,2-thiazole-4-carboxamide] |
| 0.69 | > 20 | Cc1nsc(Nc2cnccn2)c1C(=O)Nc1ccc(F)c(F)c1 [Example 65, N-(3,4-Difluorophenyl)-3-methyl-5-(pyrazin-2-ylamino)-1,2-thiazole-4-carboxamide] |
| 1.1 | > 20 | COc1ccc(NC(=O)c2c(C)nsc2Nc2nc3ccc(F)cc3s2)cn1 [Example 88, 5-[(6-Fluoro-1,3-benzothiazol-2-yl)amino]-N-(6-methoxypyridin-3-yl)-3-methyl-1,2-thiazole-4-carboxamide] |
| 0.063 | > 20 | CCNC(=O)c1cncc(Nc2snc(C)c2C(=O)Nc2ccc(F)c(F)c2)n1 [Example 73, 6-({4-[(3,4-Difluorophenyl)carbamoyl]-3-methyl-1,2-thiazol-5-yl}amino)-N-ethylpyrazine-2-carboxamide] |
| 0.077 |  | Cc1nsc(Nc2cncc(C(F)(F)F)n2)c1C(=O)Nc1ccc(F)c(F)c1 [Example 82, N-(3,4-Difluorophenyl)-3-methyl-5-{[6-(trifluoromethyl)pyrazin-2-yl]amino}-1,2-thiazole-4-carboxamide] |
